Values quoted from earlier work in article PMC10817174, “Integrated drug response prediction models pinpoint repurposed drugs with effectiveness against rhabdomyosarcoma” (PLOS ONE, 2024).

Experiments:
GDSC-SJCRH30 cell line = settings: Table S2, published drug response ref Iorio et al. (2016); cited from earlier work
GDSC-RD cell line = settings: Table S2, published drug response ref Iorio et al. (2016); cited from earlier work

Structure (SMILES)	Iorio_SJCRH30 (GDSC-SJCRH30 cell line)	Iorio_RD (GDSC-RD cell line)
COc1cc2ncnc(-n3nc(-c4ccccn4)nc3N)c2cc1OC [CP466722]	R	R
FC(F)c1nc2ccccc2n1-c1nc(N2CCOCC2)nc(N2CCOCC2)n1 [ZSTK474]	R	R
O=S(=O)(c1ccccc1)N(CC(F)(F)F)c1ccc(C(O)(C(F)(F)F)C(F)(F)F)cc1 [T0901317]	R	R
Cc1cnc(CNC(=O)c2c(=O)c3ccc(N4CCCN(C)CC4)nc3n3c2sc2ccccc23)cn1 [CX-5461]	R	S
Cn1cc(C2=C(c3cn(C4CCN(Cc5ccccn5)CC4)c4ccccc34)C(=O)NC2=O)c2ccccc21 [LY317615]	R	R
O=C(NC1CCNCC1)c1[nH]ncc1NC(=O)c1c(Cl)cccc1Cl [AT-7519]	R	R
Cn1cc(/C=C2\C(=O)Nc3cccnc32)c2ccccc21 [GW-441756]	S	
Cc1ccc(C(=O)N(CCCN)[C@@H](c2nc3cc(Cl)ccc3c(=O)n2Cc2ccccc2)C(C)C)cc1 [SB-715992]	R	R
NS(=O)(=O)OC[C@@H]1C[C@@H](n2ccc3c(N[C@H]4CCc5ccccc54)ncnc32)C[C@@H]1O [MLN4924]	R	R
Nc1ccn([C@@H]2O[C@H](CO)[C@@H](O)C2(F)F)c(=O)n1 [Gemcitabine]	R	R
NC1(c2ccc(-c3nc4ccn5c(=O)[nH]nc5c4cc3-c3ccccc3)cc2)CCC1 [MK-2206]	R	
CN1CCc2c(c3ccccc3n2Cc2ccc(C(=O)NO)cc2)C1 [Tubastatin-A]	R	S
C[C@]1(O)C[C@@H](c2nc(-c3ccc4ccc(-c5ccccc5)nc4c3)c3c(N)nccn32)C1 [OSI-906]	S	S
O=C1NC(=NCc2cccs2)S/C1=C\c1ccc2ncccc2c1 [RO-3306]	R	
CC(=O)Nc1cccc(-n2c(=O)n(C3CC3)c(=O)c3c(Nc4ccc(I)cc4F)n(C)c(=O)c(C)c32)c1 [Trametinib]	R	S
C[C@]1(c2nc3c(C(N)=O)cccc3[nH]2)CCCN1 [ABT-888]	R	
CCOc1nc(NC(=O)Cc2cc(OC)ccc2OC)cc(N)c1C#N [JNK-Inhibitor-VIII]	R	
Cc1ccc(C(=O)Nc2cccc(C(F)(F)F)c2)cc1Nc1nc(-c2cccnc2)nc2c1cnn2C [NVP-BHG712]	R	R
CC[C@@]1(O)C(=O)OCc2c1cc1n(c2=O)Cc2cc3ccccc3nc2-1 [Camptothecin]	R	
C=CCNC1=C2C[C@@H](C)C[C@H](OC)[C@H](O)[C@@H](C)/C=C(\C)[C@H](OC(N)=O)[C@@H](OC)/C=C\C=C(/C)C(=O)NC(=CC1=O)C2=O [17-AAG]	R	
Nc1ccc(C(=O)Nc2cccc(-c3nc(N4CCOCC4)c4oc5ncccc5c4n3)c2)cn1 [YM201636]	R	R

Structure (SMILES)	Iorio_SJCRH30 (GDSC-SJCRH30 cell line)	Iorio_RD (GDSC-RD cell line)
CS(=O)(=O)c1ccc(C(=O)Nc2ccc(Cl)c(-c3ccccn3)c2)c(Cl)c1 [Vismodegib]	R	
Cc1cccc(Nc2nc(-c3ccncc3)cs2)c1 [STF-62247]	R	R
CC1=C(C(=O)Nc2cc3cn[nH]c3cc2F)C(c2ccc(C(F)(F)F)cc2)CC(=O)N1 (stereo not drawn) [GSK429286A]	R	R
Cc1cn(-c2cc(NC(=O)c3ccc(C)c(Nc4nccc(-c5cccnc5)n4)c3)cc(C(F)(F)F)c2)cn1 [Nilotinib]	R	
CN(C)Cc1cccc(N/C(=C2\C(=O)Nc3cc(C(=O)N(C)C)ccc32)c2ccccc2)c1 [BIX02189]	R	R
COc1cc2nccc(Oc3ccc(NC(=O)Nc4cc(C)on4)c(Cl)c3)c2cc1OC [AV-951, tivozanib]	R	R
CC1(C)CNc2cc(NC(=O)c3cccnc3NCc3ccncc3)ccc21 [AMG-706]	R	
Cc1ccc2nc(NCCN)c3ncc(C)n3c2c1 [BMS-345541]	R	R
Cc1ccc(-n2nc(C(C)(C)C)cc2NC(=O)Nc2ccc(OCCN3CCOCC3)c3ccccc23)cc1 [BIRB-0796]	R	
COc1ccc(-c2ccc3c(N4CCOC[C@@H]4C)nc(N4CCOC[C@@H]4C)nc3n2)cc1CO [AZD8055]	R	
CC(=O)c1c(C)c2cnc(Nc3ccc(N4CCNCC4)cn3)nc2n(C2CCCC2)c1=O [PD-0332991]	R	
O=c1cc(-c2cccc3c2Sc2ccccc2S3)oc(N2CCOCC2)c1 [KU-55933]	R	
Nc1ccn([C@@H]2O[C@H](CO)[C@@H](O)[C@@H]2O)c(=O)n1 [Cytarabine]	S	
CNC(=O)c1ccc(Nc2cc(Nc3ccccc3S(=O)(=O)C(C)C)c3cc[nH]c3n2)nc1 [HG-5-113-01]	R	
N.N.[Cl][Pt][Cl] [Cisplatin]	R	
C[C@]12O[C@H](C[C@]1(O)CO)n1c3ccccc3c3c4c(c5c6ccccc6n2c5c31)CNC4=O [CEP-701]	R	
NC(=O)c1ccc(N(C(N)=O)c2c(F)cccc2F)nc1-c1ccc(F)cc1F [VX-702]	R	
COc1cc(Nc2c(C#N)cnc3cc(OCCCN4CCN(C)CC4)c(OC)cc23)c(Cl)cc1Cl [Bosutinib]	R	
COc1cc2ncnc(Nc3ccc(F)c(Cl)c3)c2cc1OCCCN1CCOCC1 [Gefitinib]	R	
CN(C)C/C=C/C(=O)Nc1ccc(C(=O)Nc2cccc(Nc3nccc(-c4cccnc4)n3)c2)cc1 [ZG-10]	R	
NC(=O)Nc1cc(-c2cccc(F)c2)sc1C(=O)N[C@H]1CCCNC1 [AZD7762]	S	

Structure (SMILES)	Iorio_SJCRH30 (GDSC-SJCRH30 cell line)	Iorio_RD (GDSC-RD cell line)
CN(Cc1cnc2nc(N)nc(N)c2n1)c1ccc(C(=O)N[C@@H](CCC(=O)O)C(=O)O)cc1 [Methotrexate]	R	
CCOc1cc(N2CCC(O)CC2)ccc1Nc1ncc2c(n1)N(C)c1ccccc1C(=O)N2C [XMD8-92]	R	
Cn1cc(C2=C(c3ccc(Cl)cc3Cl)C(=O)NC2=O)c2ccccc21 [SB-216763]	R	
CC1=C(/C=C/C(C)=C/C=C/C(C)=C/C(=O)O)C(C)(C)CCC1 [ATRA]	R	
CN(NC(=O)CC(=O)NN(C)C(=S)c1ccccc1)C(=S)c1ccccc1 [Elesclomol]	R	
COc1ccc(C2=N[C@@H](c3ccc(Cl)cc3)[C@@H](c3ccc(Cl)cc3)N2C(=O)N2CCNC(=O)C2)c(OC(C)C)c1 [Nutlin-3a]	R	
O=c1cc(N2CCOCC2)oc2c(-c3cccc4c3sc3ccccc34)cccc12 [NU-7441]	R	
COc1cc2c(Nc3ccc(NC(=O)c4ccccc4)cc3)ncnc2cc1OCCCN1CCOCC1 [ZM-447439]	R	
Cn1c(=O)n(-c2ccc(C(C)(C)C#N)cc2)c2c3cc(-c4cnc5ccccc5c4)ccc3ncc21 [NVP-BEZ235]	R	
Nc1cccc2c1CN(C1CCC(=O)NC1=O)C2=O (stereo not drawn) [Lenalidomide]	R	
CCN(CC)CCCCNc1ncc2cc(-c3cc(OC)cc(OC)c3)c(NC(=O)NC(C)(C)C)nc2n1 [PD-173074]	R	
CO[C@H]1C[C@@H]2CC[C@@H](C)[C@@](O)(O2)C(=O)C(=O)N2CCCC[C@H]2C(=O)O[C@H]([C@H](C)C[C@@H]2CC[C@@H](OC(=O)C(C)(CO)CO)[C@H](OC)C2)CC(=O)[C@H](C)/C=C(\C)[C@@H](O)[C@@H](OC)C(=O)[C@H](C)C[C@H](C)/C=C/C=C/C=C/1C [Temsirolimus]	R	
NC(=O)c1ncn([C@@H]2O[C@H](CO)[C@@H](O)[C@H]2O)c1N [AICAR]	R	
CNC(=O)c1ccccc1Sc1ccc2c(/C=C/c3ccccn3)n[nH]c2c1 [Axitinib]	R	
CC(=O)O[C@@]12CO[C@@H]1C[C@H](O)[C@@]1(C)C(=O)[C@H](O)C3=C(C)[C@@H](OC(=O)[C@H](O)[C@@H](NC(=O)OC(C)(C)C)c4ccccc4)C[C@@](O)([C@@H](OC(=O)c4ccccc4)[C@H]21)C3(C)C [Docetaxel]	R	
CC[C@]1(O)C[C@@H]2CN(CCc3c([nH]c4ccccc34)[C@@](C(=O)OC)(c3cc4c(cc3OC)N(C)[C@H]3[C@@](O)(C(=O)OC)[C@H](OC(C)=O)[C@]5(CC)C=CCN6CC[C@]43[C@@H]65)C2)C1 [Vinblastine]	R	
CC(=O)O[C@@H]1[C@@H](OC(C)=O)[C@@H](O)[C@H](Oc2c(-c3ccc(O)cc3)oc3cc(O)cc(O)c3c2=O)O[C@H]1C [SL-0101-1]	R	
O=C(NOCC1CC1)c1ccc(F)c(F)c1Nc1ccc(I)cc1Cl [CI-1040]	R	
O=C(NCCCNc1nc(Nc2cccc(NC(=O)N3CCCC3)c2)ncc1I)c1cccs1 [BX-795]	R	
O=C(NOC[C@H](O)CO)c1ccc(F)c(F)c1Nc1ccc(I)cc1F [PD-0325901]	R	
